The source of these data is patent publication US10995357B2, “Rapid antimicrobial susceptibility testing based on a unique spectral intensity ratio analysis via single fluorescence membrane dye staining and flow cytometry” (POCARED Diagnostics LTD., priority 2017, dated 2021).

Like-named read-outs stand apart in the source and are kept apart here.

What all share (type): cell-based
In test [1] the test system is 31 positive blood cultures (E. coli, K. pneumonia, A. baummanii, P. mirabilis, E. cloacae, Aeromonass spp., K. oxytoca). In words: Reference macro dilution method, visual growth after 16-20 hours, positive blood cultures. Conditions: for Reference Method Susceptibilities I: number of strains intermediate out of 31 positive blood cultures; for Reference Method Susceptibilities R: number of strains resistant out of 31 positive blood cultures; for Reference Method Susceptibilities S: number of strains susceptible out of 31 positive blood cultures. The protocol: 31 positive blood cultures were obtained from Sheba Medical Center (Ramat-Gan, Israel) and tested for antimicrobial susceptibility with gentamicin and ampicillin antibiotics (Sigma-Aldrich, USA). A total of 62 positive blood samples-antibiotics combinations were tested. • a) Positive blood samples were received from Sheba Medical Center, 2 ml of each sample were centrifuged for 15 min at 24×g and Supernatants were diluted 1:1000 with Cation-Adjusted Mueller Hinton Broth (CAMHB). • b) Antimicrobial stock solutions were prepared according to CLSI recommendations, and were diluted in CAMHB, to a concentration which was 2 fold higher from the highest concentration recommended for each antimicrobial combination (“Class II Special Controls Guidance Document: Antimicrobial Susceptibility Test (AST) Systems”, Aug. 28, 2009, FDA). • c) For each sample/antimicrobial combination, a set of tubes was prepared for which 1 ml of CAMHB medium was added, except for the first tube. • d) To each first tube of the set, 2 ml from the antimicrobial stock solution (b) was dispensed. • e) From the first tube a serial dilutions of 2 folds were prepared by transferring 1 ml of the solution to the next tube until the lowest required concentration by CLSI. 1 ml was discarded from the last tube in each set of tubes. • f) To each tube in the set, 1 ml of bacterial sample solution (a) was added. • g) For each serial dilutions set, two controls were added. As a negative control, a tube with 2 ml of CAMHB. As a positive control, a tube with bacterial sample solution (a) without antimicrobial agent. • h) All tubes were incubated at 37° C. • i) 2-4 hours from incubation initiation, 200 μl from each tube were transferred into a fresh tube, dyed with 2 μl of Synaptogreen or FM 1-43 (Sigma-Aldrich; Molecular Probes, respectively) and measured by a flow cytometer. The rest of the sample was further incubated for 16-20 hours and then was visually evaluated for growth.
62 samples (31 positive blood cultures and 2 antibiotics combination) were analyzed in triplicates. Each sample was measured by the flow cytometer and the MIC was calculated using the spectral intensity ratio (SIR) calculation and step function estimation. The bacteria identified within the samples were; E. coli (15 samples), K. pneumonia (6 samples), A. baummanii (4 samples), P. mirabilis (2 samples), E. cloacae (2 samples), Aeromonass spp. (1 sample), and K. oxytoca (1 sample).
Tables 1 and 2 present the results of the positive blood sample experiment using the macro dilution as the reference method. […] There are no errors as defined by “Class II Special Controls Guidance Document: Antimicrobial Susceptibility Test (AST) Systems,” Aug. 28, 2009, FDA.

The subject of test [2] is 30 clinical isolates of E. coli, K. pneumoniae, E. cloacae, P. mirabilis, and C. freundii. In words: Reference macro dilution method, visual growth after 16-20 hours, clinical isolates. Conditions: for Reference Method Susceptibilities I: number of strains intermediate out of 30 clinical isolates; for Reference Method Susceptibilities R: number of strains resistant out of 30 clinical isolates; for Reference Method Susceptibilities S: number of strains susceptible out of 30 clinical isolates. The protocol: A total of 90 isolates-antibiotics combinations were tested. • a) All strains were cultured onto 5% sheep blood agar (Hylabs, Israel), following overnight incubation, colonies were harvested and suspended in Phosphate Buffer Saline (PBS, Sigma-Aldrich). […] 1 ml was discarded from the last tube in each set of tubes. • g) For each serial dilutions set, two controls were added. As a negative control, a tube with 2 ml of CAMHB. […] The rest of the sample was further incubated for 16-20 hours and then was visually evaluated for growth.

The next test has as its system K. pneumonia. In words: Rapid AST/MIC by spectral intensity ratio (SIR), FM 1-43 staining and flow cytometry, directly from positive blood culture. Conditions: 2-4 hours antibiotic exposure, SIR step function fit. Here is the method: (§1) In general, the method includes; blood culture centrifugation, bacterial antimicrobial exposure for 2 to 4 hours, bacteria staining with a single fluorescence dye followed by a flow cytometric measurement, and mathematical analysis.
(§2) 31 positive blood cultures were obtained from Sheba Medical Center (Ramat-Gan, Israel) and tested for antimicrobial susceptibility with gentamicin and ampicillin antibiotics (Sigma-Aldrich, USA). A total of 62 positive blood samples-antibiotics combinations were tested. • a) Positive blood samples were received from Sheba Medical Center, 2 ml of each sample were centrifuged for 15 min at 24×g and Supernatants were diluted 1:1000 with Cation-Adjusted Mueller Hinton Broth (CAMHB). • b) Antimicrobial stock solutions were prepared according to CLSI recommendations, and were diluted in CAMHB, to a concentration which was 2 fold higher from the highest concentration recommended for each antimicrobial combination (“Class II Special Controls Guidance Document: Antimicrobial Susceptibility Test (AST) Systems”, Aug. […] As a positive control, a tube with bacterial sample solution (a) without antimicrobial agent. • h) All tubes were incubated at 37° C. • i) 2-4 hours from incubation initiation, 200 μl from each tube were transferred into a fresh tube, dyed with 2 μl of Synaptogreen or FM 1-43 (Sigma-Aldrich; Molecular Probes, respectively) and measured by a flow cytometer. The rest of the sample was further incubated for 16-20 hours and then was visually evaluated for growth.
(§3) In order to quantify the influence of a certain antimicrobial exposure we define the spectral intensity ratio (SIR) as follows: […]
(§4) The MIC is calculated by plotting the spectral intensity ratio (SIR) as a function of the antimicrobial concentration and approximating it to a step function in the form of […]
On the technique in general: Flow cytometry measures light scatter and fluorescence of single cells or particles in a stream.

Test [3] has as its system E. coli. The test is described as above. Conditions: E. coli strain from positive blood culture; scatter plot unchanged at high antibiotic concentrations. Here is the method:
as §1, §2, §3, §4

Test [4] deals with E. coli. In words: Rapid AST/MIC by spectral intensity ratio (SIR), FM 1-43 staining and flow cytometry, from clinical isolates. The settings on record: E. coli clinical isolate; 2-4 hours antibiotic exposure; SIR step function fit. The protocol:
(§5) Our method includes bacterial antimicrobial treatment for 2 to 4 hours, bacteria staining with a single fluorescence dye followed by a flow cytometric measurement, and mathematical analysis. The following paragraphs describe the method in details.
(§6) A total of 90 isolates-antibiotics combinations were tested. • a) All strains were cultured onto 5% sheep blood agar (Hylabs, Israel), following overnight incubation, colonies were harvested and suspended in Phosphate Buffer Saline (PBS, Sigma-Aldrich). […] The rest of the sample was further incubated for 16-20 hours and then was visually evaluated for growth.
(§7) In order to quantify the influence of a certain antimicrobial treatment, we define the spectral intensity ratio (SIR) as follows: […]
(§8) The MIC is calculated by plotting the spectral intensity ratio (SIR) as a function of the antimicrobial concentration and approximating it to a step function in the form of
(§9) Where a, b, and c are parameters and erf is the error function. The parameters are used to approximate the measured SIR to a step function; a is a scaling parameter, b determines the step slope, and c is the MIC value. […]

For a further test, the system named is C. freundii. The description is as above. Conditions: C. freundii clinical isolate; up to 32 μg/ml; SIR almost constant. Here is the method:
as §5, §6, §7, §8, §9

One may read the MIC as the lowest concentration found to suppress growth. In the case of `CC1(C)S[C@@H]2[C@H](NC(=O)[C@H](N)c3ccccc3)C(=O)N2[C@H]1C(=O)O` [Ampicillin, ampicillin], in test [1], the “Reference Method Susceptibilities I” value is 0, the “Reference Method Susceptibilities R” value is reported as 26 and the “Reference Method Susceptibilities S” value is 5. Moreover, in test [2], the “Reference Method Susceptibilities I” value came out at 5, the “Reference Method Susceptibilities R” value came to 9 and the “Reference Method Susceptibilities S” value was found to be 16. For the same compound, the MIC with K. pneumonia (Klebsiella pneumoniae, read-out: MIC) worked out at 4 µg/mL. Also, in the test with E. coli [3], the “Susceptibility (SIR as a function of antibiotic concentration)” value was “resistant”.
gentamicin: the MIC in the test with E. coli [4] is 2 µg/mL. Also, the “Susceptibility (SIR as a function of antibiotic concentration)” value in the test on C. freundii was “resistant”. In test [1], the “Reference Method Susceptibilities I” value was determined as 0, the “Reference Method Susceptibilities R” value was found to be 10 and the “Reference Method Susceptibilities S” value stood at 21. In test [2], the “Reference Method Susceptibilities I” value is reported as 4, the “Reference Method Susceptibilities R” value is reported as 5 and the “Reference Method Susceptibilities S” value is 21. In the test with K. pneumonia, the MIC came out at 1 µg/mL.
